# Measured values as given in patent publication EP4660190A1, “PHARMACEUTICALLY ACCEPTABLE SALT OF COMPOUND AND PREPARATION METHOD THEREFOR” (Jiangsu Chia Tai Fenghai Pharmaceutical Co., Ltd., priority 2023, dated 2024).
# Read-outs that look alike come from different tables or passages of the source. Marks after values point to notes of the source that are not given here.
# Key:
# [1] = Pharmacokinetics of butylphthalide in rats (literature values); conditions: rat; calculated based on the literature value of AUC0-inf (p.o. 60 mg/kg vs i.v. 10 mg/kg)
# [2] = rat, value in literature, cited from earlier work
# [3] = tested on: rat spinal cord injury model; assay: Rat spinal cord injury model, pathological changes
# [4] = Hygroscopicity test (Chinese Pharmacopoeia Section 9103); format: physicochemical; conditions: 25°C, 80% relative humidity, 24 hours
# [5] = tested on: TDP-43-A315T transgenic mice of ALS model; assay: TDP-43-A315T ALS mice, muscle tone test; format: in vivo; conditions: Mean±SEM
# [6] = tested on: TDP-43-A315T transgenic mice of ALS model; assay: TDP-43-A315T ALS mice, rotarod test; format: in vivo; conditions: Mean±SEM
# [7] = tested on: SOD1 G93A ALS mice; assay: SOD1-G93A ALS mice, survival; format: in vivo; conditions: 40 mg/kg dose group
# [8] = tested on: MPTP-induced Parkinson's disease model mice; assay: MPTP-induced mouse Parkinson's disease model, striatal dopamine (DOPA) detection; format: in vivo, C57 mice; conditions: striatum, four weeks, mean ± SD
# [9] = tested on: MPTP-induced Parkinson's disease model mice; assay: MPTP-induced mouse Parkinson's disease model, pole test; format: in vivo, C57 mice; conditions: mean ± SD
# [10] = tested on: MPTP-induced Parkinson's disease model mice; assay: MPTP-induced mouse Parkinson's disease model, grip strength test; conditions: Before Modeling, mean ± SD
# [11] = tested on: MPTP-induced Parkinson's disease model mice; assay: MPTP-induced mouse Parkinson's disease model, TH-positive cell counts in the substantia nigra pars compacta; format: in vivo, C57 mice; conditions: four weeks, mean ± SD
# [12] = tested on: rat spinal cord injury model; assay: Rat spinal cord injury model, Neurofilament 200 (NF200) expression; format: in vivo, Male SD rats; conditions: mean±SD, n=6
# [13] = Pharmacokinetic test in rats; format: in vivo, Male SD rats; conditions: rat; p.o. 10 mg/kg vs i.v. 1 mg/kg
# Procedure: Male SD rats (weighing 180-260g) were administered with the compound of formula (I) intravenously at a dose of 1.0 mg/kg via tail vein injection, and orally at a dose of 10.0 mg/kg. Each group consisted of 3 animals. The solvent for administration was a solution of 5% DMSO + 5% polyethoxylated castor oil (Cremophor EL) in normal saline. The rats were fasted for about 12 h before administration and were given ad libitum access to food 4 h after administration, and water was available all the time. Blood was collected from the orbit at about 0.2 mL before administration and 5 min, 15 min, 30 min, 1 h, 2 h, 4 h, 6 h, 8 h, and 24 h after administration. The samples were placed in EDTA-K2 anticoagulant EP tubes in an ice bath, and subjected to low-speed centrifugation at 4°C and 3500 rpm for 10 min to isolate plasma, which was then stored at -20°C before analysis. The plasma concentration of the compound of formula (I) was determined using liquid chromatography-tandem mass spectrometry (LC-MS/MS). Pharmacokinetic parameters were calculated from the analysis results of the samples using WinNonlin software.
# [14] = high dose 20 mg/kg daily, listed as Tromethamine salt from Example 10, 20 mg/kg
# [15] = high dose 20 mg/kg daily, listed as tromethamine salt from Example 10, 20 mg/kg
# [16] = low dose 5 mg/kg daily, listed as Tromethamine salt from Example 10, 5 mg/kg
# [17] = low dose 5 mg/kg daily, listed as tromethamine salt from Example 10, 5 mg/kg
compound,measurement,setting,value
"CCCCC1OC(=O)c2ccccc21 (centres unmarked) [Butylphthalide, butylphthalide, reference compound]",F,[1],16.6* %
same,AUC0-inf,[2]; i.v. 10 mg/kg,8620.0 ng·h/mL
same,AUC0-t,[2]; i.v. 10 mg/kg,7230.0 ng·h/mL
same,MRTinf,[2]; i.v. 10 mg/kg,2.4 h
same,T1/2,[2]; i.v. 10 mg/kg,2.2 h
same,AUC0-inf,[2]; p.o. 60 mg/kg,8560.0 ng·h/mL
same,AUC0-t,[2]; p.o. 60 mg/kg,7110.0 ng·h/mL
same,Cmax,[2]; p.o. 60 mg/kg,2900.0 ng/mL
same,MRTinf,[2]; p.o. 60 mg/kg,3.8 h
same,T1/2,[2]; p.o. 60 mg/kg,2.83 h
same,Tmax,[2]; p.o. 60 mg/kg,0.7 h
(Z)-3-(1-hydroxybutenyl)benzofuran-2-one tromethamine salt [Example 10],cases showing a reduction in lesions,"[3]; 20 mg/kg dose group, spinal cord histopathology",4 out of 6
same,pathological changes versus the model control group,[3]; low-dose group (5 mg/kg),No significant differences
same,hygroscopicity,[4],non-hygroscopic
same,weight gain percentage,[4],0.0%
same,Muscle Tone,"[5]; female mice, 20mg/kg, animal age 6 weeks",165.4 ± 7.815 g
same,Muscle Tone,"[5]; female mice, 20mg/kg, animal age 8 weeks",190.2 ± 14.13 g
same,Muscle Tone,"[5]; female mice, 20mg/kg, animal age 10 weeks",153.7 ± 8.355 g
same,Muscle Tone,"[5]; female mice, 20mg/kg, animal age 12 weeks",159.4 ± 13.21 g
same,Muscle Tone,"[5]; female mice, 20mg/kg, animal age 13 weeks",149.8 ± 4.815 g
same,Muscle Tone,"[5]; female mice, 20mg/kg, animal age 14 weeks",150.9 ± 6.940 g
same,Muscle Tone,"[5]; female mice, 20mg/kg, animal age 16 weeks",159.5 ± 7.125 g
same,Muscle Tone,"[5]; female mice, 40mg/kg p.o., animal age 6 weeks",155.8 ± 3.677 g
same,Muscle Tone,"[5]; female mice, 40mg/kg p.o., animal age 8 weeks",190.6 ± 10.24 g
same,Muscle Tone,"[5]; female mice, 40mg/kg p.o., animal age 10 weeks",147.8 ± 7.822 g
same,Muscle Tone,"[5]; female mice, 40mg/kg p.o., animal age 12 weeks",154.3 ± 6.584 g
same,Muscle Tone,"[5]; female mice, 40mg/kg p.o., animal age 13 weeks",148.1 ± 4.851 g
same,Muscle Tone,"[5]; female mice, 40mg/kg p.o., animal age 14 weeks",161.6 ± 2.816 g
same,Muscle Tone,"[5]; female mice, 40mg/kg p.o., animal age 16 weeks",155.2 ± 3.339 g
same,Muscle Tone,"[5]; male mice, 40mg/kg p.o., animal age 6 weeks",155.4 ± 6.495 g
same,Muscle Tone,"[5]; male mice, 40mg/kg p.o., animal age 8 weeks",170.9 ± 6.777 g
same,Muscle Tone,"[5]; male mice, 40mg/kg p.o., animal age 10 weeks",155.6 ± 8.359 g
same,Muscle Tone,"[5]; male mice, 40mg/kg p.o., animal age 12 weeks",123.1 ± 18.21 g
same,Muscle Tone,"[5]; male mice, 40mg/kg p.o., animal age 13 weeks",120.8 ± 12.91 g
same,Muscle Tone,"[5]; male mice, 40mg/kg p.o., animal age 14 weeks",89.72 ± 19.04 g
same,Muscle Tone,"[5]; male mice, 60mg/kg p.o., animal age 6 weeks",175.7 ± 7.244 g
same,Muscle Tone,"[5]; male mice, 60mg/kg p.o., animal age 8 weeks",177.0 ± 5.555 g
same,Muscle Tone,"[5]; male mice, 60mg/kg p.o., animal age 10 weeks",155.93 ± 4.345 g
same,Muscle Tone,"[5]; male mice, 60mg/kg p.o., animal age 12 weeks",136.8 ± 16.00 g
same,Muscle Tone,"[5]; male mice, 60mg/kg p.o., animal age 13 weeks",149.8 ± 3.710 g
same,Muscle Tone,"[5]; male mice, 60mg/kg p.o., animal age 14 weeks",149.8 ± 2.045 g
same,Rotarod performance,"[6]; female mice, 20mg/kg, Dosing Schedule (weeks) 2",287.0 ± 8.449 s
same,Rotarod performance,"[6]; female mice, 20mg/kg, Dosing Schedule (weeks) 4",288.6 ± 7.796 s
same,Rotarod performance,"[6]; female mice, 20mg/kg, Dosing Schedule (weeks) 6",285.4 ± 6.626 s
same,Rotarod performance,"[6]; female mice, 20mg/kg, Dosing Schedule (weeks) 8",266.3 ± 14.55 s
same,Rotarod performance,"[6]; female mice, 20mg/kg, Dosing Schedule (weeks) 10",254.2 ± 12.62 s
same,Rotarod performance,"[6]; female mice, 20mg/kg, Dosing Schedule (weeks) 12",266.2 ± 14.94 s
same,Rotarod performance,"[6]; female mice, 20mg/kg, Dosing Schedule (weeks) 14",272.3 ± 10.62 s
same,Rotarod performance,"[6]; female mice, 20mg/kg, Dosing Schedule (weeks) 16",267.8 ± 16.51 s
same,Rotarod performance,"[6]; female mice, 40mg/kg p.o., Dosing Schedule (weeks) 2",273.6 ± 12.14 s
same,Rotarod performance,"[6]; female mice, 40mg/kg p.o., Dosing Schedule (weeks) 4",271.4 ± 10.22 s
same,Rotarod performance,"[6]; female mice, 40mg/kg p.o., Dosing Schedule (weeks) 6",269.5 ± 8.270 s
same,Rotarod performance,"[6]; female mice, 40mg/kg p.o., Dosing Schedule (weeks) 8",275.6 ± 9.651 s
same,Rotarod performance,"[6]; female mice, 40mg/kg p.o., Dosing Schedule (weeks) 10",260.6 ± 12.34 s
same,Rotarod performance,"[6]; female mice, 40mg/kg p.o., Dosing Schedule (weeks) 12",270.6 ± 9.446 s
same,Rotarod performance,"[6]; female mice, 40mg/kg p.o., Dosing Schedule (weeks) 14",256.3 ± 10.00 s
same,Rotarod performance,"[6]; female mice, 40mg/kg p.o., Dosing Schedule (weeks) 16",236.5 ± 15.50 s
same,Rotarod performance,"[6]; male mice, 40mg/kg p.o., Dosing Schedule (weeks) 6",272.9 ± 7.148 s
same,Rotarod performance,"[6]; male mice, 40mg/kg p.o., Dosing Schedule (weeks) 8",267.5 ± 9.357 s
same,Rotarod performance,"[6]; male mice, 40mg/kg p.o., Dosing Schedule (weeks) 10",275.8 ± 10.38 s
same,Rotarod performance,"[6]; male mice, 40mg/kg p.o., Dosing Schedule (weeks) 11",224.3 ± 26.08 s
same,Rotarod performance,"[6]; male mice, 40mg/kg p.o., Dosing Schedule (weeks) 12",182.1 ± 40.34 s
same,Rotarod performance,"[6]; male mice, 40mg/kg p.o., Dosing Schedule (weeks) 13",154.2 ± 30.27 s
same,Rotarod performance,"[6]; male mice, 60mg/kg p.o., Dosing Schedule (weeks) 6",295.6 ± 3.322 s
same,Rotarod performance,"[6]; male mice, 60mg/kg p.o., Dosing Schedule (weeks) 8",275.1 ± 11.91 s
same,Rotarod performance,"[6]; male mice, 60mg/kg p.o., Dosing Schedule (weeks) 10",267.3 ± 10.94 s
same,Rotarod performance,"[6]; male mice, 60mg/kg p.o., Dosing Schedule (weeks) 11",263.0 ± 12.54 s
same,Rotarod performance,"[6]; male mice, 60mg/kg p.o., Dosing Schedule (weeks) 12",266.3 ± 17.99 s
same,Rotarod performance,"[6]; male mice, 60mg/kg p.o., Dosing Schedule (weeks) 13",209.0 ± 31.68 s
same,extension of survival,[7],approximately 15 days
same,DOPA,[8]; [14],2731.07 ± 868.18 ng/g
same,DOPA,[8]; [15],2731.07 ± 868.18 ng/g
same,DOPA,[8]; [16],837.82±372.19^& ng/g
same,DOPA,[8]; [17],837.82 ± 372.19 ng/g
same,Pole test results,"[9]; high dose 20 mg/kg daily, four weeks, Study Endpoint, listed as Tromethamine salt from Example 10, 20 mg/kg",8.83 ± 1.77 s
same,Pole test results,"[9]; high dose 20 mg/kg daily, four weeks, Study Endpoint, listed as tromethamine salt from Example 10, 20 mg/kg",8.83 ± 1.77 s
same,Pole test results,"[9]; high dose 20 mg/kg group, Before Modeling",9.51 ± 1.66 s
same,Pole test results,"[9]; low dose 5 mg/kg daily, four weeks, Study Endpoint, listed as Tromethamine salt from Example 10, 5 mg/kg",9.67 ± 1.48 s
same,Pole test results,"[9]; low dose 5 mg/kg daily, four weeks, Study Endpoint, listed as tromethamine salt from Example 10, 5 mg/kg",9.67 ± 1.48 s
same,Pole test results,"[9]; low dose 5 mg/kg group, Before Modeling",9.40 ± 1.51 s
same,Grip Strength Test,[10]; high dose 20 mg/kg group,278.44 ± 8.96 g
same,Grip Strength Test,[10]; low dose 5 mg/kg group,276.97 ± 6.40 g
same,TH-Positive Cell counts,[11]; [14],42.42±4.36^&#
same,TH-Positive Cell counts,[11]; [15],42.42±4.36
same,TH-Positive Cell counts,[11]; [16],31.22±5.97^&
same,TH-Positive Cell counts,[11]; [17],31.22±5.97
same,Positive Count (number per field of view),[12]; high dose 20 mg/kg,30.3±7.4 number per field of view
same,Positive Count (number per field of view),[12]; low dose 5 mg/kg,22.5± 7.5 number per field of view
CCC/C(O)=C1/C(=O)Oc2ccccc21 [Compound (I)],F,[13],144.2%
